Measured values as given in patent EP3502234B1, “ANAEROBIC AMMONIUM OXIDATION WITH PLANKTONIC CELLS IN A CONTINUOUS OR SEMI-CONTINUOUS STIRRED-TANK REACTOR” (priority 2017, dated 2019).

Assays:
[1] = system: anammox activity of reactor effluent; assay: Incubations of reactor effluent with effectors; anammox activity from headspace gas production rate; format: cell-based, "Ca. Kuenenia stuttgartiensis"; conditions: for IC50: 30°C
Method: 60 mL nitrogen-flushed glass bottles were anoxically filled with 50 mL reactor effluent and closed with butyl rubber septa and aluminum crimp caps. Effectors were anoxically added with sterile syringes through the septa or directly added to the bottles as powder. Except for the experiment in which nitrite was varied, 3 mM nitrite was added at time 0. Each bottle was directly connected to a MPX5100DP pressure sensor via a 0.41 mm Luer Lock needle. All sensors were electrically connected to a LabJack converter for data reading and storage. Pressure sensors were read every 3 seconds. In total, twelve such bottles were set up for each experiment, allowing the simultaneous testing of five different effector concentrations in duplicate plus two bottles as negative controls without effector.
Experiments were incubated for 24 hours after which 3 mL air was injected into each bottle for calibration of the pressure sensor readings. Gas production rates were calculated as mL per day across 1,000 consecutive data points (3,000 seconds). […] The same time frame was chosen for all twelve bottles in one experiment to calculate anammox activities from the slopes.
For that the reactor effluent was incubated in closed bottles and monitored the pressure build-up in the headspace over time. […] Legend: the number before the dash indicates the chloramphenicol concentration in mg L^-1, the number behind the dash indicates the number of the replicate. (A) Gas production; (B) Gas production rate calculated in a window of 1,000 consecutive data points (equivalent to 3,000 seconds).

[2] = system: anammox activity of "Ca. Kuenenia stuttgartiensis "; conditions: 20 mg L^-1 chloramphenicol, sequencing batch reactor, after 4 days; cited from earlier work
[3] = system: anammox activity of "Ca. Kuenenia stuttgartiensis "; conditions: 1 g L^-1 chloramphenicol; cited from earlier work
[4] = system: "Ca. Kuenenia stuttgartiensis"; conditions: previous reports; cited from earlier work
[5] = system: anammox activity; assay: Semi-CSTR reactor operation under critical conditions (pulse addition, reactor collapse); format: cell-based, "Ca. Kuenenia stuttgartiensis"; conditions: pulse of 0.2 mM Na2S added to the reactor
Method: The reactor effluent was collected in anoxic 2-liter bottles and stored in the dark at 4°C to be used later for inhibitor tests (see below) or as inoculum when the reactor collapsed. During one-year operation under experimental conditions, the reactor intentionally collapsed three times under three different critical conditions: 1) after the reactor was incubated for 24 h at 38.6°C without feeding nitrite, 2) after a pulse of 0.2 mM Na2S was added, and 3) after a pulse of 65 µM FeCl2 was added. […] After such reactor collapses, the reactor could be reproducibly regenerated with the stored eluent bottles. The activity in the effluent bottles was recovered, as judged from pressure production rates, within only 2 days when a bottle was warmed up to room temperature, spiked with 3 mM nitrite and incubated at 30°C. Effluent could be stored at 4°C for at least three months without startup delay.

[6] = reactor effluent, gas production rate normalized to controls without effector

## [Cl-].[Na+] [NaCl]
[1]; 270 mM salt
  inhibition: 75%
[1]; reactor effluent
  salt concentrations that start to inhibit anammox activity: 120 to 270 mM
[1]; salt concentrations up to 120 mM
  inhibition: No apparent inhibition

## O=C(N[C@H](CO)[C@H](O)c1ccc([N+](=O)[O-])cc1)C(Cl)Cl [chloramphenicol]
[2]
  drop in reactor efficiency: 25%
  drop in specific anammox activity: 75%
[1]; chloramphenicol 30 mg L^-1
  inhibition at 30 µg/mL: 57%
[1]; reactor effluent, 3 mM nitrite
  IC50: 19 µg/mL
[3]
  inhibition: no apparent inhibition

## CN(C)c1ccc2nc3ccc(=[N+](C)C)cc-3sc2c1 [methylene blue]
[1]; 100 µg L^-1 methylene blue
  inhibition: 86%
[1]; methylene blue 10 µg L^-1
  inhibition of anammox activity: no apparent inhibition
[1]; reactor effluent, 3 mM nitrite
  IC50: 0.053 µg/mL

## O=N[O-].[Na+] [nitrite, NaNO2]
[1]; nitrite at 6 mM
  inhibition: 24%
[1]; nitrite at 6 mM, as worded in the discussion
  inhibition: severe inhibition
[1]; [6]
  IC50: 9.6 mM
[4]
  tolerant to nitrite: 13 to 25 mM

## [Na+].[Na+].[S-2] [sulfide, Na2S]
[1]; reactor effluent, 3 mM nitrite
  IC50: 0.005 mM
[1]; sulfide at 5 µM
  inhibition of anammox activity: severely inhibited
[5]
  effect on the reactor: complete loss of the anammox activity

## phosphate
[1]; 6.5 mM phosphate
  anammox activity higher than in the controls at 1.5 mM: 11%
[1]; highest tested concentration of 51.5 mM phosphate
  anammox activity preserved: 65%
[1]; phosphate concentration increased from 1.5 mM to 3.5 mM
  increase of anammox activity: 16%
[1]; [6]
  IC50: > 51.5 mM
